Results reported in patent US10793568B2, “Hormone receptor modulators for treating metabolic conditions and disorders” (ARDELYX, INC., priority 2016, dated 2020).

Experiments:
[1] = molecular target: ligand binding domain of human FXR (Homo sapiens (Human), UniProt Q96RI1); assay: FXR ligand binding assay (LanthaScreen TR-FRET, SRC2-2 peptide recruitment); conditions: for pEC50 / EC50: -log EC50, concentration required to produce 50% activation; for Emax: extent of activation relative to GW4064, read-out: % Efficacy
[2] = molecular target: human Farnesoid X receptor ligand-binding domain/Gal4 DNA binding domain chimera (Homo sapiens (Human), UniProt Q96RI1); assay: Cell-based assay of FXR activation (FXR-UAS-bla HEK 293T beta-lactamase reporter); conditions: cellular FXR beta-lactamase reporter assay; for Emax: HEK-293T, extent of activation relative to GW4064, read-out: % Efficacy; for EC50: FXR-UAS-bla HEK 293T cells, 16 h, pEC50 = -log EC50
Procedure, shortened: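 Readout is cleavage of the CCF4 FRET substrate (409 nm excitation, blue 447 nm signal) by beta-lactamase, expressed under UAS control after a Gal4–human FXR LBD chimera is activated in HEK 293T cells. Compounds were added as 3-fold dilutions for 16 h at 37 °C in 2% charcoal-stripped FBS medium. Curves were fit to a 3-parameter logistic equation to give pEC50, with % activation relative to GW4064.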

Chain of human Farnesoid X receptor ligand-binding domain/Gal4 DNA binding domain chimera (Q96RI1 262-486, change not shown): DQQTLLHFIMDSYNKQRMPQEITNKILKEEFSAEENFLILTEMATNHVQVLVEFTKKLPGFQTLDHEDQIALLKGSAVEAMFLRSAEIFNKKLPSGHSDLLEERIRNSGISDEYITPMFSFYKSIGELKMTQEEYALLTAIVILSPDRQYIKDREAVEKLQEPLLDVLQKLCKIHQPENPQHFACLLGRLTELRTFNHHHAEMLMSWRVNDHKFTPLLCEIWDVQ
Chain of human Farnesoid X receptor ligand-binding domain/Gal4 DNA binding domain chimera (P04386 1-147 partner): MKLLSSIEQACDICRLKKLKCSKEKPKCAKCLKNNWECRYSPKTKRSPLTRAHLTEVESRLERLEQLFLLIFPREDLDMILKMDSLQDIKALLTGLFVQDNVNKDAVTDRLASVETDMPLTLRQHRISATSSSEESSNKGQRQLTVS
Chain of ligand binding domain of human FXR (Q96RI1 262-486): as the sequence (Q96RI1 262-486, change not shown) above

EC50 [1] [nM]	SMILES	pEC50 [1]	Emax [1] [%]	Emax [2] [%]	EC50 [2] [nM]
	Fc1cc(-c2nn[nH]n2)ccc1N1C[C@@H]2C[C@H]1C[C@H]2OCc1c(-c2c(Cl)cccc2Cl)noc1C1CC1 [Compound I-134, (1S,4S,5R)-5-{[5-cyclopropyl-3-(2,6-dichlorophenyl)-1,2-oxazol-4-yl]methoxy}-2-[2-fluoro-4-(2H-1,2,3,4-tetrazol-5-yl)phenyl]-2-azabicyclo[2.2.1]heptane]	8.2	156	104	0.794
	CS(=O)(=O)NC(=O)CCc1ccc(N2C[C@@H]3C[C@H]2C[C@H]3OCc2c(-c3c(Cl)cccc3Cl)noc2C2CC2)c(F)c1 [Compound I-236, 3-(4-((1S,4S,5R)-5-((5-cyclopropyl-3-(2,6-dichlorophenyl)isoxazol-4-yl)methoxy)-2-azabicyclo[2.2.1]heptan-2-yl)-3-fluorophenyl)-N-(methylsulfonyl)propanamide]	8.4	156	95	2.51
	Cc1cccc(C)c1-c1noc(C2CC2)c1CO[C@@H]1C[C@@H]2C[C@H]1CN2c1ccc(C(=O)O)cc1F [Compound I-116, 4-[(1S,4S,5R)-5-{[5-cyclopropyl-3-(2,6-dimethylphenyl)-1,2-oxazol-4-yl]methoxy}-2-azabicyclo[2.2.1]heptan-2-yl]-3-fluorobenzoic Acid]	8.6	131	102	3.98
	O=C(O)c1cc(OC2CC2)c2nc(N3C[C@@H]4C[C@H]3C[C@H]4OCc3c(C4CCC5(CC4)CC5)noc3C3CC3)sc2c1 [Compound I-278, 4-cyclopropoxy-2-((1S,4S,5R)-5-((5-cyclopropyl-3-(spiro[2.5]octan-6-yl)isoxazol-4-yl)methoxy)-2-azabicyclo[2.2.1]heptan-2-yl)benzo[d]thiazole-6-carboxylic acid]	7.7	96	98	10
	CC(C)(C)c1cc(C(=O)O)cc2sc(N3C[C@@H]4C[C@H]3C[C@H]4OCc3c(-c4c(Cl)cccc4Cl)noc3C3CC3)nc12 [Compound I-248, 4-tert-butyl-2-[(1S,4S,5R)-5-{[5-cyclopropyl-3-(2,6-dichlorophenyl)-1,2-oxazol-4-yl]methoxy}-2-azabicyclo[2.2.1]heptan-2-yl]-1,3-benzothiazole-6-carboxylic Acid]	7.8	116	112	0.631
	O=C(NS(=O)(=O)CCC1CCOC1)c1ccc(N2C(=O)[C@@H]3C[C@H]2C[C@H]3OCc2c(-c3c(Cl)cccc3Cl)noc2C2CC2)cc1F (stereo partly drawn) [Compound I-336, 4-((1S,4R,5R)-5-((5-cyclopropyl-3-(2,6-dichlorophenyl)isoxazol-4-yl)methoxy)-3-oxo-2-azabicyclo[2.2.1]heptan-2-yl)-2-fluoro-N-((2-(tetrahydrofuran-3-yl)ethyl)sulfonyl)benzamide]	8.6	182	125	2.51
100	O=C(O)c1cc(F)c2nc(N3C[C@@H]4C[C@H]3C[C@H]4OCc3c(C4CCCCC4)noc3C3CC3)sc2c1 [Compound I-21, 2-[(1S,4S,5R)-5-[(3-cyclohexyl-5-cyclopropyl-1,2-oxazol-4-yl)methoxy]-2-azabicyclo[2.2.1]heptan-2-yl]-4-fluoro-1,3-benzothiazole-6-carboxylic Acid]		123	110	79.4
	Cc1cccc(F)c1-c1noc(C2CC2)c1CO[C@@H]1C[C@@H]2C[C@H]1C(=O)N2c1ccc(C(=O)O)cc1 [Compound I-307, 4-[(1S,4R,5R)-5-{[5-cyclopropyl-3-(2-fluoro-6-methylphenyl)-1,2-oxazol-4-yl]methoxy}-3-oxo-2-azabicyclo[2.2.1]heptan-2-yl]benzoic Acid]	7.4	154	110	10
	O=C(NS(=O)(=O)CCOC(=O)C1CC1)c1ccc(N2C[C@@H]3C[C@H]2C[C@H]3OCc2c(-c3c(Cl)cccc3Cl)noc2C2CC2)cc1 [Compound I-212, 2-[({4-[(1S,4S,5R)-5-{[5-cyclopropyl-3-(2,6-dichlorophenyl)-1,2-oxazol-4-yl]methoxy}-2-azabicyclo[2.2.1]heptan-2-yl]phenyl}formamido)sulfonyl]ethyl Cyclopropanecarboxylate]	9.2	136	107	2.51
	C[C@@H]1[C@@H]2C[C@@H](C[C@H]2OCc2c(-c3c(Cl)cccc3Cl)noc2C2CC2)N1c1ccc(C(=O)O)cc1 [Compound I-360, 4-[(1S,3R,4S,5R)-5-[[5-cyclopropyl-3-(2,6-dichlorophenyl)-1,2-oxazol-4-yl]methoxy]-3-methyl-2-azabicyclo[2.2.1]heptan-2-yl]benzoic acid]	8.6	117	102	0.794
	Fc1cc(CCc2nn[nH]n2)ccc1N1C[C@@H]2C[C@H]1C[C@H]2OCc1c(-c2c(Cl)cccc2Cl)noc1C1CC1 [Compound I-162, (1S,4S,5R)-5-{[5-cyclopropyl-3-(2,6-dichlorophenyl)-1,2-oxazol-4-yl]methoxy}-2-{2-fluoro-4-[2-(2H-1,2,3,4-tetrazol-5-yl)ethyl]phenyl}-2-azabicyclo[2.2.1]heptane]	8.1	140	105	6.31
	Cc1cccc(Cl)c1-c1noc(C2CC2)c1CO[C@@H]1C[C@@H]2C[C@H]1CN2c1nc2c(O[C@@H]3CCOC3)cc(C(=O)O)cc2s1 [Compound I-275, 2-((1S,4S,5R)-5-((3-(2-chloro-6-methylphenyl)-5-cyclopropylisoxazol-4-yl)methoxy)-2-azabicyclo[2.2.1]heptan-2-yl)-4-(((R)-tetrahydrofuran-3-yl)oxy)benzo[d]thiazole-6-carboxylic acid]	8.8	140	106	0.631
1.26	O=C(NS(=O)(=O)C1CCOCC1)c1ccc(N2C[C@@H]3C[C@H]2C[C@H]3OCc2c(-c3c(Cl)cccc3Cl)noc2C2CC2)cc1 [Compound I-182, 4-[(1S,4S,5R)-5-{[5-cyclopropyl-3-(2,6-dichlorophenyl)-1,2-oxazol-4-yl]methoxy}-2-azabicyclo[2.2.1]heptan-2-yl]-N-(oxane-4-sulfonyl)benzamide]		156	106	0.158
	O=C(O)c1cc(F)c(N2C[C@@H]3C[C@H]2C[C@H]3OCc2c(-c3c(Cl)cccc3Cl)noc2C2CC2)cc1F [Compound I-105, 4-[(1S,4S,5R)-5-{[5-cyclopropyl-3-(2,6-dichlorophenyl)-1,2-oxazol-4-yl]methoxy}-2-azabicyclo[2.2.1]heptan-2-yl]-2,5-difluorobenzoic Acid]	9.4	142	112	1.26
	O=C(O)c1cc(F)c2nc(N3C[C@H]4C[C@@H]3C[C@H]4OCc3c(-c4c(Cl)cccc4Cl)noc3C3CC3)sc2c1 [Compound I-41, 2-[(1R,4R,5R)-5-{[5-cyclopropyl-3-(2,6-dichlorophenyl)-1,2-oxazol-4-yl]methoxy}-2-azabicyclo[2.2.1]heptan-2-yl]-4-fluoro-1,3-benzothiazole-6-carboxylic Acid]	>4.5		40	2510
	O=C(O)c1cc([C@H]2CCOC2)c2nc(N3C[C@@H]4C[C@H]3C[C@H]4OCc3c(C4CCC5(CC4)CC5)noc3C3CC3)sc2c1 [Compound I-280, 2-((1S,4S,5R)-5-((5-cyclopropyl-3-(spiro[2.5]octan-6-yl)isoxazol-4-yl)methoxy)-2-azabicyclo[2.2.1]heptan-2-yl)-4-((R)-tetrahydrofuran-3-yl)benzo[d]thiazole-6-carboxylic acid]	7.3	115	105	25.1
	O=C(O)c1ccc(N2C[C@@H]3C[C@H]2C[C@H]3OCc2c(-c3c(Cl)cccc3Cl)noc2C2CC2)cc1F [Compound I-103, 4-[(1S,4S,5R)-5-{[5-cyclopropyl-3-(2,6-dichlorophenyl)-1,2-oxazol-4-yl]methoxy}-2-azabicyclo[2.2.1]heptan-2-yl]-2-fluorobenzoic Acid]	8.7	135	103	0.794
	CCCS(=O)(=O)NC(=O)c1ccc(N2C[C@@H]3C[C@H]2C[C@H]3OCc2c(-c3c(Cl)cccc3Cl)noc2C2CC2)nc1 [Compound I-204, 6-((1S,4S,5R)-5-((5-cyclopropyl-3-(2,6-dichlorophenyl)isoxazol-4-yl)methoxy)-2-azabicyclo[2.2.1]heptan-2-yl)-N-(propylsulfonyl)nicotinamide]	8.4	136	104	2.51
	NS(=O)(=O)[C@@H]1CCC[C@H]1OC(=O)c1ccc(N2C(=O)[C@@H]3C[C@H]2C[C@H]3OCc2c(-c3c(Cl)cccc3Cl)noc2C2CC2)cc1F [Compound I-347, (1R,2R)-2-sulfamoylcyclopentyl 4-[(1S,4R,5R)-5-{[5-cyclopropyl-3-(2,6-dichlorophenyl)-1,2-oxazol-4-yl]methoxy}-3-oxo-2-azabicyclo[2.2.1]heptan-2-yl]-2-fluorobenzoate]	8.5	203	135	1
